In patent US9278982B2, “Targeting human thymidylate kinase induces DNA repair toxicity in malignant tumor cells” (NATIONAL YANG-MING UNIVERSITY, priority 2010, dated 2016):

Key:
thymidine kinase 1 (TK1) = target: T1, thymidine kinase 1 (TK1) (Homo sapiens, UniProt P04183); assay: Luciferase-coupled TK assay; format: biochemical; conditions: GST-hTK1 protein (5 μg), 10 min preincubation
T1 construct: made in house; host or cells: E. coli JM109 (pGEX-3X-hTK1)
Protocol: FIG. 12. Identification of a novel hTMPK inhibitor. (A) A screen of TMPK inhibitor by luciferase-coupled assay. (B) The chemical structures of YMU1 (compound 21) and related molecules. (C) Effect of YMU1 and derivative compounds on hTMPK inhibition using purified hTMPK protein (0.5 μg) with 10 min preincubation prior to reaction using luciferase-coupled TMPK analysis. (D) Effect of YMU1 on activity of purified TMPK (0.5 μg) and GST-hTK1 protein (5 μg) with 10 min preincubation prior to reaction. Data represent mean±s.d. (n=4) (E) Molecular models of the TMPK-YMU1 complex. Left panel: TMPK/ATP/Mg+2; right panel: TMPK/YMU1. The TMPK is represented in surface electrostatic potential (upper) and structural ribbon (lower). ATP and YMU1 are shown in green and blue stick, respectively, with colored atom (O, red; S, yellow; P, orange). […]
The TK reaction was started by adding purified hTMPK in 50 μl of TK assay buffer (50 mM Tris-HCl, pH 7.5, 1 mM CHAPS, 3 mg/ml BSA, 2.5 mM MgCl2, 50 μM ATP and 100 μM thymidine) in 96 wells plate at 25° C. for 10 min and terminated by adding 200 μl of thymidine (1.25 mM), followed by transferring 10 μl of reaction solution to a white 96-wellplate containing 90 μl of luciferase assay buffer (50 mM Glycine, 0.5 mM EDTA and 5 mM EDTA, pH 7.0, 0.1 μg of luciferase, 50 μM luciferin and 0.1% BSA). The luminescence was measured with a luminescence counter (Packard).

In vivo toxicity of YMU1 = assay: In vivo toxicity of YMU1; design: species or system Balb/c mice
[1] = target: T2, purified human thymidylate kinase (Homo sapiens, UniProt P23919); assay: NADH-coupled TMPK assay (kinetic parameters); format: biochemical; conditions: for Ki: 10 min pre-incubation, average of three YMU1 concentrations
T2 construct: GST (N, cleaved yes); made in house; host or cells: E. coli JM109 (pGEX-2T-hTMPK)
T2 sequence (P23919 1-212): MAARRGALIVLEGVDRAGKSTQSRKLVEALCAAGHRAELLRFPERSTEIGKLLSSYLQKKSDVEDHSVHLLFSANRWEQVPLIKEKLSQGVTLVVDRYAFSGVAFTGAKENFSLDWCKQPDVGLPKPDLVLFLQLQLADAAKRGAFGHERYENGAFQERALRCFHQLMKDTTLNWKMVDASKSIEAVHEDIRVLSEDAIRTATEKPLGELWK
Protocol: The inhibitory mode of YMU1 was determined by pre-incubating different concentrations of YMU1 with purified hTMPK protein and measuring initial velocity using the conventional TMPK assay.
All reactions were performed in 96-well plates in an assay volume of 100 μl. The activity of hTMPK was measured at 25° C. using a modified NADH coupled colorimetric assay as described (Agarwal et al., 1978; Miyata et al., 2003; Ostermann et al., 2003), in which purified hTMPK was added to the buffer containing 100 mM Tris-HCl, pH 7.5, 100 mM KCl, 10 mM MgCl2, 0.5 mM phosphoenol pyruvate, 0.25 mM NADH, 5 units of lactate dehydrogenase, 4 units of pyruvate kinase, 1 mM ATP, and 200 μM dTMP. The change of NADH was measured by reading the absorbance at 340 nm. One unit of TMPK activity is defined as the conversion of 1 μmole of TMP to TDP per minute.

[2] = system: H184B5F5/M10, MCF-10A, MCF-7 and HCT-116 p53−/− cells
Protocol: (B) H184B5F5/M10 cells were seeded onto 100 mm-dish at 5,000 cells/dish. MCF-10A, MCF-7 and HCT-116 p53^−/− cells were seeded onto 6 well plate at 600 cells/well. Following overnight culture, cells were treated with various concentration of YMU1 or FdUrd thrice a week. After 14 days colonies were fixed, stained by crystal violet.
We also compared the effect of YMU1 and FdUrd on cell viability of non-tumorigenic mammary cycling cells, H184B5F5/M10 and MCF-10A and tumor lines, MCF-7 and HCT-116 p53^−/− cells.
After 14 days, colonies were fixed and stained by crystal violet and counted.

TMPK = target: T3, TMPK (Homo sapiens, UniProt P23919); assay: Luciferase-coupled TMPK assay; format: biochemical; design: GST (N, cleaved yes); made in house; host or cells: E. coli JM109 (pGEX-2T-hTMPK); conditions: purified hTMPK protein (0.5 μg), 10 min preincubation; read-out: IC50 against hTMPK
T3 sequence (P23919 1-212): T2 sequence (P23919 1-212)
Protocol: FIG. 12. Identification of a novel hTMPK inhibitor. (A) A screen of TMPK inhibitor by luciferase-coupled assay. (B) The chemical structures of YMU1 (compound 21) and related molecules. (C) Effect of YMU1 and derivative compounds on hTMPK inhibition using purified hTMPK protein (0.5 μg) with 10 min preincubation prior to reaction using luciferase-coupled TMPK analysis. (D) Effect of YMU1 on activity of purified TMPK (0.5 μg) and GST-hTK1 protein (5 μg) with 10 min preincubation prior to reaction. Data represent mean±s.d. (n=4) (E) Molecular models of the TMPK-YMU1 complex. Left panel: TMPK/ATP/Mg+2; right panel: TMPK/YMU1. The TMPK is represented in surface electrostatic potential (upper) and structural ribbon (lower). ATP and YMU1 are shown in green and blue stick, respectively, with colored atom (O, red; S, yellow; P, orange). TMP is shown in white backbone and Mg+2 in purple. Arrow indicates the position of Asp15.
Based on the functional requirement of TMPK in DNA repair specifically in tumor cells with elevated level of R2 expression, we searched for inhibitors of hTMPK that might be useful in selectively sensitizing tumor cells to doxorubicin. […] The synthetic procedure and structural elucidation of YMU1 (compound 21) are described in the Methods of the Invention section of the application.
The TMPK reaction was started by adding purified hTMPK in 50 μl of TMPK assay buffer (100 mM Tris-HCl, pH 7.5, 100 mM KCl, 10 mM MgCl2, 50 μM ATP and 100 μM dTMP) in 96 wells plate at 25° C. for 10 min and terminated by adding 200 μl of DTNB (100 μM), followed by transferring 10 μl of reaction solution to a white 96-wellplate containing 90 μl of luciferase assay buffer (50 mM Glycine, 0.5 mM EDTA and 5 mM EDTA, pH 7.0, 0.1 μg of luciferase, 50 μM luciferin and 0.1% BSA). The luminescence was measured with a luminescence counter (Packard).

T1 sequence (P04183 whole entry): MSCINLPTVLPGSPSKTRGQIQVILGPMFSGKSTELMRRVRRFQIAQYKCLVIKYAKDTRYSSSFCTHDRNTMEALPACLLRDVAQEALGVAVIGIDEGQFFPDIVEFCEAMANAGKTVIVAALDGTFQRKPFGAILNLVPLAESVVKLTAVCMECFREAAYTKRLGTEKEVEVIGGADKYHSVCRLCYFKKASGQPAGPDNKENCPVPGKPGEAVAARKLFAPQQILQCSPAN

## CCOC(=O)N1CCN(C(=O)Cn2sc3nc(C)cc(C)c3c2=O)CC1 [compound 21, Ethyl 4-(2-(4,6-dimethyl-3-oxoisothiazolo[5,4-b]pyridin-2(3H)-yl)acetyl) piperazine-1-carboxylate]
Thymidine kinase 1 (TK1)
  inhibitory effect on activity of purified thymidine kinase 1 (TK1): without inhibitory effect
In vivo toxicity of YMU1; Pre-treat, n = 4, Mean ± SEM
  Body weight: 19.93 ± 1.63 g
In vivo toxicity of YMU1; Treatment group n = 4, YMU1 4 weeks
  Clinical observations: Nil
In vivo toxicity of YMU1; Week -2, n = 4, Mean ± SEM
  Body weight: 20.88 ± 1.07 g
In vivo toxicity of YMU1; Week-1, n = 4, Mean ± SEM
  Body weight: 20.48 ± 1.43 g
In vivo toxicity of YMU1; Week-3, n = 4, Mean ± SEM
  Body weight: 21.25 ± 1.13 g
In vivo toxicity of YMU1; Week-4, n = 4, Mean ± SEM
  Body weight: 21.30 ± 0.96 g
In vivo toxicity of YMU1; YMU1 4 weeks, 2-fold higher dose regimen than in the tumor xenograft study
  mouse body weight: did not alter mouse body weight
In vivo toxicity of YMU1; YMU1 on its own, 4 weeks
  toxic effect in normal mice: produces no toxic effect
In vivo toxicity of YMU1; n = 4, Mean ± SEM
  Blood Chemistry, Alanine Aminotransferase: 32.00 ± 2.45 U/L
  Blood Chemistry, Alkaline Phosphatase: 389.25 ± 20.79 U/L
  Blood Chemistry, Aspartate Aminotransferase: 62.50 ± 5.26 U/L
  Blood Chemistry, Blood Urea Nitrogen: 19.08 ± 3.25 mg/dL
  Blood Chemistry, Creatinine: 0.10 ± 0.00 mg/dL
  Blood Chemistry, Total protein: 5.48 ± 0.25 g/dL
  Hematology, Hb: 16.25 ± 0.41 g/dl
  Hematology, PCV: 53.48 ± 2.50%
In vivo toxicity of YMU1; n = 4, Mean ± SEM, *P < 0.05
  Blood Chemistry, Glucose: 136.25 ± 14.31* mg/dl
[1]; ATP 1 mM, TMP varied 2~200 μM
  Ki: 220 ± 30 nM
[1]; ATP varied, YMU1 0.25 μM
  Vmax: 212.0 ± 10.3 nmol/min/mg
[1]; ATP varied, YMU1 0.5 μM
  Vmax: 94.8 ± 6.9 nmol/min/mg
[1]; ATP varied, YMU1 1 μM
  Vmax: 55.7 ± 1.3 nmol/min/mg
[1]; TMP 200 μM, ATP varied 5~1000 μM
  Ki: 180 ± 60 nM
[1]; TMP varied, YMU1 0.125 μM
  Vmax: 258.9 ± 12.4 nmol/min/mg
[1]; TMP varied, YMU1 0.25 μM
  Vmax: 180.6 ± 11.8 nmol/min/mg
[1]; TMP varied, YMU1 0.5 μM
  Vmax: 91.8 ± 6.4 nmol/min/mg
[2]
  death of cells in colony assay: did not
TMPK
  IC50: 610 ± 20 nM
